From patent US20160194358A1, “LINEAR PEPTIDE ANTIBIOTCS” (priority 2013, published 2016)
Converted amounts (≈) assume the structure as drawn. Where two headings read alike, the source gives them in different places. *1 amine or outer side, *2 acyl side, *3 side chain or, on linkers, in order; H or OH if unused. Where a SMILES comes first, the peptide text is derived from it. [ ]: non-standard residue; d: D form. The star is where a group is joined. boroAla((+)-pinanediol) = C[C@H](N*)B1O[C@@H]2C[C@@H]3C[C@@H](C3(C)C)[C@]2(C)O1; Benzoyl(4-(4-Cl-Ph)) = O=C(c1ccc(-c2ccc(Cl)cc2)cc1)*; X27 = CCCCCCCCN1CCN([*:1])C(C(=O)[*:2])C1; X32 = CCCCCCN1CCN([*:1])C(C(=O)[*:2])C1; X30 = CCCCc1ccc(-c2ncc(C(=O)*)cn2)cc1; X33 = CC(C)(O)C#CC#Cc1ccc(C(=O)*)cc1; X35 = O=C(c1cnc(-c2ccc(Cl)cc2)nc1)*; X25 = C[C@H](N*)C(=O)c1ncc(C#N)o1; X26 = CCCCCCCCc1ccc(C(=O)*)c(C)c1; X36 = CC(C)C#CC#Cc1ccc(C(=O)*)cc1; Myristoyl = CCCCCCCCCCCCCC(=O)*; X23 = O=C(c1ccc(C#CC#CCCO)cc1)*; X28 = C[C@H](N*)C(=O)c1ncccn1; Decanoyl = CCCCCCCCCC(=O)*; Octanoyl = CCCCCCCC(=O)*; Dab = NCC[C@H](N)C(=O)O; Dap = NC[C@H](N)C(=O)O

What was measured:
[1] = tested on: Escherichia coli strain MC4100 IMP-4213, which harbors an LptD mutation; settings: E. coli MC4100 IMP-4213; 35° C., 22 hours
Method: (§1) In vitro antimicrobial activity of each compound was determined by measuring minimal inhibitor concentrations (MICs) using the broth micro-dilution technique as approved by the Clinical and Laboratory Standards Institute (CLSI). Antibacterial activity was measure against two strains of bacteria: 1) methicillin resistant Staphylococcus aureus (MRSA) strain USA300 (NRS384) and 2) Escherichia coli strain MC4100 IMP-4213, which harbors an LptD mutation. Bacterial inocula were prepared by scraping cells into 1 mL of testing media (cation adjusted Mueller Hinton Broth supplemented with 0.002% v/v Tween-80) and diluting to a final OD600nm of 0.01.
(§2) Test compounds were prepared in DMSO at a concentration of 10 mg/ml. These compound stocks were diluted into testing media at a concentration of 64 μg/ml and 9 serial 1:2 dilutions were made in the same media, in 96-well U bottom microtiter dishes. Bacterial inocula were added to the two fold serial dilutions of test compounds to a final density of OD OD600nm of 0.0005 and incubated stationarily at 35° C. for 22 hours, after which the plates were examined visually.

[2] = tested on: methicillin resistant Staphylococcus aureus (MRSA) strain USA300 (NRS384)
Method: as §1, §2

[3] = MRSA USA300 (NRS384), 35° C., 22 hours

Row | SMILES | MIC (μg/mL) E. coli [1] | MIC (μg/mL) S. aureus [2, 3] | MIC (μg/mL) S. aureus ([2]; USA300, 22 h)
1 | CCCCCCCCCC(=O)NCC(=O)N[C@H](C(=O)N[C@@H](C)C(=O)N[C@@H](CCCCN)C(=O)N[C@@H](C)B1O[C@@H]2C[C@@H]3C[C@@H](C3(C)C)[C@]2(C)O1)[C@@H](C)O [Compound 258] (Decanoyl-GTAK-{boroAla((+)-pinanediol)}) | >64 µg/mL | 8 µg/mL (≈ 10.9 µM) | 
2 | CCCCCCCCCC(=O)NCC(=O)N[C@@H](CCCCN)C(=O)N[C@H](C(=O)N[C@@H](C)C(=O)N[C@@H](CCCCN)C(=O)N[C@@H](C)B1O[C@@H]2C[C@@H]3C[C@@H](C3(C)C)[C@]2(C)O1)[C@@H](C)O [Compound 259] (Decanoyl-GKTAK-{boroAla((+)-pinanediol)}) | 64 µg/mL (≈ 74.2 µM) | 2.4 µg/mL (≈ 2.78 µM) | 
3 | CCCCCCCC(=O)N[C@@H](CN)C(=O)N[C@H](C(=O)N[C@@H](C)C(=O)N[C@@H](CCCCN)C(=O)N[C@@H](C)B1O[C@@H]2C[C@@H]3C[C@@H](C3(C)C)[C@]2(C)O1)[C@@H](C)O [Compound 260] (Octanoyl-[Dap]TAK-{boroAla((+)-pinanediol)}) | 32 µg/mL (≈ 43.5 µM) | 23 µg/mL (≈ 31.3 µM) | 
4 | C[C@H](NC(=O)[C@H](CCCCN)NC(=O)[C@H](C)NC(=O)[C@@H](NC(=O)[C@H](CCN)NC(=O)c1cnc(-c2ccc(Cl)cc2)nc1)[C@@H](C)O)B1O[C@@H]2C[C@@H]3C[C@@H](C3(C)C)[C@]2(C)O1 [Compound 261] (X35-[Dab]TAK-{boroAla((+)-pinanediol)}) | 4 µg/mL (≈ 4.76 µM) | 1.7 µg/mL (≈ 2.02 µM) | 
5 | CC(C)C#CC#Cc1ccc(C(=O)N[C@@H](CCN)C(=O)N[C@H](C(=O)N[C@@H](C)C(=O)N[C@@H](CCCCN)C(=O)N[C@@H](C)B2O[C@@H]3C[C@@H]4C[C@@H](C4(C)C)[C@]3(C)O2)[C@@H](C)O)cc1 [Compound 263] (X36-[Dab]TAK-{boroAla((+)-pinanediol)}) | 0.25 µg/mL (≈ 0.306 µM) | 0.71 µg/mL (≈ 0.868 µM) | 
6 | C[C@H](NC(=O)[C@H](CCCCN)NC(=O)[C@H](C)NC(=O)[C@@H](NC(=O)[C@H](CCN)NC(=O)c1ccc(C#CC#CC(C)(C)O)cc1)[C@@H](C)O)B1O[C@@H]2C[C@@H]3C[C@@H](C3(C)C)[C@]2(C)O1 [Compound 264] (X33-[Dab]TAK-{boroAla((+)-pinanediol)}) | 4 µg/mL (≈ 4.8 µM) | 8 µg/mL (≈ 9.59 µM) | 
7 | C[C@H](NC(=O)[C@H](CCCCN)NC(=O)[C@H](C)NC(=O)[C@@H](NC(=O)[C@H](CCN)NC(=O)c1ccc(C#CC#CCCO)cc1)[C@@H](C)O)B1O[C@@H]2C[C@@H]3C[C@@H](C3(C)C)[C@]2(C)O1 [Compound 265] (X23-[Dab]TAK-{boroAla((+)-pinanediol)}) | 16 µg/mL (≈ 19.5 µM) | 16 µg/mL (≈ 19.5 µM) | 
8 | C[C@H](NC(=O)[C@@H](NC(=O)[C@H](CN)NC(=O)c1ccc(-c2ccc(Cl)cc2)cc1)[C@@H](C)O)C(=O)N[C@@H](CCCCN)C(=O)N[C@@H](C)C(=O)c1ncc(C#N)o1 [Compound 266] ({Benzoyl(4-(4-Cl-Ph))}-[Dap]TAK-X25) | 16 µg/mL (≈ 20.9 µM) | 23 µg/mL (≈ 30 µM) | 
9 | C[C@H](NC(=O)[C@@H](NC(=O)[C@H](CN)NC(=O)c1ccc(-c2ccc(Cl)cc2)cc1)[C@@H](C)O)C(=O)N[C@@H](CCCCN)C(=O)N[C@@H](C)C(=O)c1ncccn1 [Compound 267] ({Benzoyl(4-(4-Cl-Ph))}-[Dap]TAK-X28) | 32 µg/mL (≈ 42.5 µM) | 11 µg/mL (≈ 14.6 µM) | 
10 | CCCCCCCCCCNCCC(=O)N[C@@H](CCCCN)C(=O)N[C@@H](C)C(=O)N[C@@H](CCCCN)C(=O)N[C@@H](C)B1O[C@@H]2C[C@@H]3C[C@@H](C3(C)C)[C@]2(C)O1 [Compound 268] | 8 µg/mL (≈ 10.5 µM) |  | 0.5 µg/mL (≈ 0.656 µM)
11 | CCCCCCCCCCNCCC(=O)N[C@@H](CCCCN)C(=O)N[C@@H](C)C(=O)N[C@@H](CCCCN)C(=O)N[C@@H](C)B(O)O [Compound 269] | 11 µg/mL (≈ 17.5 µM) | 0.35 µg/mL (≈ 0.558 µM) | 
12 | CCCCc1ccc(-c2ncc(C(=O)N[C@@H](CCN)C(=O)N[C@H](C(=O)N[C@@H](C)C(=O)N[C@@H](CCCCN)C(=O)N[C@@H](C)B3O[C@@H]4C[C@@H]5C[C@@H](C5(C)C)[C@]4(C)O3)[C@@H](C)O)cn2)cc1 [Compound 270] (X30-[Dab]TAK-{boroAla((+)-pinanediol)}) | 0.25 µg/mL (≈ 0.29 µM) | 0.25 µg/mL (≈ 0.29 µM) | 
13 | CCCCc1ccc(-c2ncc(C(=O)N[C@@H](CCN)C(=O)N[C@@H](CCCCN)C(=O)N[C@@H](C)C(=O)N[C@@H](CCCCN)C(=O)N[C@@H](C)B3O[C@@H]4C[C@@H]5C[C@@H](C5(C)C)[C@]4(C)O3)cn2)cc1 [Compound 271] (X30-[Dab]KAK-{boroAla((+)-pinanediol)}) | 0.13 µg/mL (≈ 0.146 µM) | 0.25 µg/mL (≈ 0.281 µM) | 
14 | CCCCCCCCCCCCCC(=O)N[C@@H](CCN)C(=O)N[C@H](C(=O)N[C@@H](C)C(=O)N[C@@H](CCCCN)C(=O)N[C@@H](C)B1O[C@@H]2C[C@@H]3C[C@@H](C3(C)C)[C@]2(C)O1)[C@@H](C)O [Compound 272] (Myristoyl-[Dab]TAK-{boroAla((+)-pinanediol)}) | 0.13 µg/mL (≈ 0.156 µM) | 0.13 µg/mL (≈ 0.156 µM) | 
15 | CCCCCCCCc1ccc(C(=O)N[C@@H](CCN)C(=O)N[C@H](C(=O)N[C@@H](C)C(=O)N[C@@H](CCCCN)C(=O)N[C@@H](C)B2O[C@@H]3C[C@@H]4C[C@@H](C4(C)C)[C@]3(C)O2)[C@@H](C)O)c(C)c1 [Compound 273] (X26-[Dab]TAK-{boroAla((+)-pinanediol)}) | 0.13 µg/mL (≈ 0.152 µM) | 0.13 µg/mL (≈ 0.152 µM) | 
16 | CCCCCCCCc1ccc(C(=O)N[C@@H](CCCCN)C(=O)N[C@H](C(=O)N[C@@H](C)C(=O)N[C@@H](CCCCN)C(=O)N[C@@H](C)B2O[C@@H]3C[C@@H]4C[C@@H](C4(C)C)[C@]3(C)O2)[C@@H](C)O)c(C)c1 [Compound 274] (X26-KTAK-{boroAla((+)-pinanediol)}) | 0.5 µg/mL (≈ 0.567 µM) | 0.13 µg/mL (≈ 0.147 µM) | 
17 | CCCCc1ccc(-c2ccc(C(N[C@@H](CCCCN)C(=O)N[C@H](C(=O)N[C@@H](C)C(=O)N[C@@H](CC(C)C)C(=O)N[C@@H](C)B3O[C@@H]4C[C@@H]5C[C@@H](C5(C)C)[C@]4(C)O3)[C@@H](C)O)C(F)(F)F)cc2)cc1 (stereo partly drawn) [Compound 277] | 4 µg/mL (≈ 4.32 µM) | 1.4 µg/mL (≈ 1.51 µM) | 
18 | CCCCCCCCN1CCNC(C(=O)N[C@@H](CCCCN)C(=O)N[C@H](C(=O)N[C@@H](C)C(=O)N[C@@H](CCCCN)C(=O)N[C@@H](C)B2O[C@@H]3C[C@@H]4C[C@@H](C4(C)C)[C@]3(C)O2)[C@@H](C)O)C1 (stereo partly drawn) [Compound 279] (H-[X27]KTAK-{boroAla((+)-pinanediol)}) | >64 µg/mL | 10 µg/mL (≈ 11.4 µM) | 
19 | CCCCCCN1CCNC(C(=O)N[C@@H](CCCCN)C(=O)N[C@H](C(=O)N[C@@H](C)C(=O)N[C@@H](CCCCN)C(=O)N[C@@H](C)B2O[C@@H]3C[C@@H]4C[C@@H](C4(C)C)[C@]3(C)O2)[C@@H](C)O)C1 (stereo partly drawn) [Compound 280] (H-[X32]KTAK-{boroAla((+)-pinanediol)}) | >64 µg/mL | 64 µg/mL (≈ 75.5 µM) | 
20 | C[C@H](NC(=O)[C@H](CCCCN)NC(=O)[C@H](C)NC(=O)[C@@H](NC(=O)C(NC(=O)c1ccc(-c2ccc(Cl)cc2)cc1)C1CNC1)[C@@H](C)O)B1O[C@@H]2C[C@@H]3C[C@@H](C3(C)C)[C@]2(C)O1 (stereo partly drawn) [Compound 281] | 8 µg/mL (≈ 9.41 µM) | 4 µg/mL (≈ 4.7 µM) | 
21 | C[C@H](NC(=O)[C@H](CCCCN)NC(=O)[C@H](C)NC(=O)[C@@H](NC(=O)C(NC(=O)c1ccc(-c2ccc(Cl)cc2)cc1)C1CNC1)[C@@H](C)O)B1O[C@@H]2C[C@@H]3C[C@@H](C3(C)C)[C@]2(C)O1 (stereo partly drawn) [Compound 282] | 16 µg/mL (≈ 18.8 µM) | 8 µg/mL (≈ 9.41 µM) | 
